Data reported in ChEMBL document CHEMBL2046319, “Synthesis and cytotoxicity of lupane-type triterpenoid glyceryl esters” (Bioorg Med Chem Lett, 2012).

Tests used:
A549 = assay: Cytotoxicity against human A549 cells by Alamar Blue dye assay; type: functional, cell-based
DLD-1 = assay: Cytotoxicity against human DLD1 cells by Alamar Blue dye assay; type: functional, cell-based
[1] = Cytotoxicity against human WS1 cells by Alamar Blue dye assay; type: cell-based

SMILES | IC50 (A549) [µM] | IC50 (DLD-1) [µM] | IC50 [1] [µM]
C=C(C)[C@@H]1CC[C@]2(COC(=O)[C@H](O)CO)CC[C@]3(C)[C@H](CC[C@@H]4[C@@]5(C)CC[C@H](OC(=O)[C@H](O)CO)C(C)(C)[C@@H]5CC[C@]43C)[C@@H]12 | 31 | 39 | 40
C=C(C)[C@@H]1CC[C@]2(COC(=O)[C@H]3COC(C)(C)O3)CC[C@]3(C)[C@H](CC[C@@H]4[C@@]5(C)CC[C@H](OC(=O)[C@H]6COC(C)(C)O6)C(C)(C)[C@@H]5CC[C@]43C)[C@@H]12 | > 100 | > 100 | > 100
C=C(C)[C@@H]1CC[C@]2(COC(C)=O)CC[C@]3(C)[C@H](CC[C@@H]4[C@@]5(C)CC[C@H](OC(=O)[C@H]6COC(C)(C)O6)C(C)(C)[C@@H]5CC[C@]43C)[C@@H]12 | > 100 | > 100 | > 100
C=C(C)[C@@H]1CC[C@]2(COC(C)=O)CC[C@]3(C)[C@H](CC[C@@H]4[C@@]5(C)CC[C@H](OC(=O)[C@H](O)CO)C(C)(C)[C@@H]5CC[C@]43C)[C@@H]12 | 15.5 | 16 | 15
C=C(C)[C@@H]1CC[C@]2(C(=O)OC[C@H]3COC(C)(C)O3)CC[C@]3(C)[C@H](CC[C@@H]4[C@@]5(C)CC[C@H](O)C(C)(C)[C@@H]5CC[C@]43C)[C@@H]12 | 30 | 96 | 43
C=C(C)[C@@H]1CC[C@]2(C(=O)OC[C@H](O)CO)CC[C@]3(C)[C@H](CC[C@@H]4[C@@]5(C)CC[C@H](OC(C)=O)C(C)(C)[C@@H]5CC[C@]43C)[C@@H]12 | 16.5 | 18 | 15
C=C(C)[C@@H]1CC[C@]2(COC(=O)[C@H](O)CO)CC[C@]3(C)[C@H](CC[C@@H]4[C@@]5(C)CC[C@H](OC(C)=O)C(C)(C)[C@@H]5CC[C@]43C)[C@@H]12 | 16.3 | 16 | 16
C=C(C)[C@@H]1CC[C@]2(C(=O)OC[C@H]3COC(C)(C)O3)CC[C@]3(C)[C@H](CC[C@@H]4[C@@]5(C)CC[C@H](OC(C)=O)C(C)(C)[C@@H]5CC[C@]43C)[C@@H]12 | > 100 | > 100 | > 100
C=C(C)[C@@H]1CC[C@]2(C(=O)OC[C@H](O)CO)CC[C@]3(C)[C@H](CC[C@@H]4[C@@]5(C)CC[C@H](O)C(C)(C)[C@@H]5CC[C@]43C)[C@@H]12 | 16 | 23 | 13.7
C=C(C)[C@@H]1CC[C@]2(COC(=O)[C@H]3COC(C)(C)O3)CC[C@]3(C)[C@H](CC[C@@H]4[C@@]5(C)CC[C@H](OC(C)=O)C(C)(C)[C@@H]5CC[C@]43C)[C@@H]12 | > 100 | > 100 | > 100
